Data: ChEMBL document CHEMBL1201862, “PubChem BioAssay data set” (2004)
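Five compound concentrations were applied to cells in 96-well plates for 48 hours; endpoints were derived by simple linear interpolation of the resulting dose-response curve. GI50 is the concentration that inhibits growth by half.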 The source made the active and inactive calls. Rule as the data show it: active = GI50 up to about 1.1 µM and inactive = higher.

Columns and labels:
Test in all cases: NCI-60 cell line screen, 48 h
SW-620 = system: SW-620
COLO 205 = system: COLO 205
UACC-257 = system: UACC-257
MDA-MB-435 = system: MDA-MB-435
DU-145 = system: DU-145
MDA-MB-231 = system: MDA-MB-231
SF-539 = system: SF-539
Hs-578T = system: Hs-578T
HCT-15 = system: HCT-15
HCC 2998 = system: HCC 2998
SF-295 = system: SF-295
786-0 = system: 786-0
Malme-3M = system: Malme-3M
CCRF-CEM = system: CCRF-CEM
BT-549 = system: BT-549
NCI/ADR-RES = system: NCI/ADR-RES
OVCAR-4 = system: OVCAR-4
NCI-H522 = system: NCI-H522
LOX IMVI = system: LOX IMVI
TK-10 = system: TK-10
UACC-62 = system: UACC-62
A549 = system: A549
RXF 393 = system: RXF 393
NCI-H226 = system: NCI-H226
HL-60 = system: HL-60
SK-MEL-28 = system: SK-MEL-28
HOP-62 = system: HOP-62
SK-MEL-2 = system: SK-MEL-2
SNB-19 = system: SNB-19
SF-268 = system: SF-268
U-251 = system: U-251
A498 = system: A498
M14 = system: M14
SR = system: SR
OVCAR-3 = system: OVCAR-3
EKVX = system: EKVX
OVCAR-5 = system: OVCAR-5
NCI-H460 = system: NCI-H460
SK-MEL-5 = system: SK-MEL-5
ACHN = system: ACHN
MCF7 = system: MCF7
SN12C = system: SN12C
SNB-75 = system: SNB-75
MDA-N = system: MDA-N
NCI-H23 = system: NCI-H23
RPMI-8226 = system: RPMI-8226
IGROV-1 = system: IGROV-1
PC-3 = system: PC-3
HT-29 = system: HT-29
KM12 = system: KM12
HOP-92 = system: HOP-92
MOLT-4 = system: MOLT-4
T47D = system: T47D
SK-OV-3 = system: SK-OV-3
OVCAR-8 = system: OVCAR-8
HCT-116 = system: HCT-116
K562 = system: K562
CAKI-1 = system: CAKI-1
UO-31 = system: UO-31

Measured: GI50

CC(=O)OC/C=C(/C=C/CNC1CCCCC1)OC(C)=O
inactive: SW-620 14000 nM | COLO 205 13900 nM | UACC-257 15100 nM | MDA-MB-435 16000 nM | DU-145 17000 nM | MDA-MB-231 14300 nM | SF-539 11600 nM | Hs-578T 36300 nM | HCC 2998 23400 nM | SF-295 18100 nM | 786-0 11500 nM | Malme-3M 14900 nM | CCRF-CEM 4340 nM | BT-549 16900 nM | NCI/ADR-RES 19600 nM | OVCAR-4 20800 nM | NCI-H522 21400 nM | LOX IMVI 19100 nM | TK-10 16600 nM | UACC-62 19100 nM | A549 47800 nM | RXF 393 17900 nM | NCI-H226 25900 nM | HL-60 > 10000 nM | SK-MEL-28 16800 nM | HOP-62 16500 nM | SK-MEL-2 19800 nM | SNB-19 24500 nM | SF-268 17100 nM | U-251 17800 nM | A498 19800 nM | M14 8280 nM | SR 10700 nM | OVCAR-3 17400 nM | EKVX 16500 nM | OVCAR-5 16300 nM | NCI-H460 24100 nM | SK-MEL-5 17900 nM | ACHN 16400 nM | MCF7 22000 nM | SN12C 16700 nM | SNB-75 31300 nM | MDA-N 18000 nM | NCI-H23 16300 nM | RPMI-8226 4830 nM | IGROV-1 18600 nM | PC-3 17300 nM | HT-29 18600 nM | KM12 15500 nM | HOP-92 12500 nM | MOLT-4 36200 nM | T47D 7260 nM | SK-OV-3 19600 nM | OVCAR-8 > 10000 nM | HCT-116 14900 nM | K562 12900 nM | CAKI-1 13800 nM
19200 nM: HCT-15

CN(C)CCN1Nc2c3ccccc3nc3c(C(=O)NCCCN(C)CCCNC(=O)c4ccc5c6c(c7ccccc7nc46)NN5CCN(C)C)ccc1c23
active: SW-620 < 10 nM | COLO 205 14.3 nM | UACC-257 22.4 nM | MDA-MB-435 < 10 nM | DU-145 21.7 nM | MDA-MB-231 58.1 nM | SF-539 257 nM | Hs-578T 35.2 nM | UO-31 69.2 nM | HCC 2998 < 10 nM | SF-295 < 10 nM | 786-0 < 10 nM | Malme-3M < 10 nM | CCRF-CEM 27.4 nM | BT-549 178 nM | OVCAR-4 26.6 nM | NCI-H522 < 10 nM | LOX IMVI < 10 nM | TK-10 132 nM | UACC-62 17.3 nM | A549 < 10 nM | RXF 393 150 nM | NCI-H226 18.7 nM | HL-60 12 nM | SK-MEL-28 49.8 nM | HOP-62 10.4 nM | SK-MEL-2 10.9 nM | SNB-19 < 10 nM | SF-268 11.2 nM | U-251 < 10 nM | A498 65.9 nM | M14 35.3 nM | SR < 10 nM | OVCAR-3 33.3 nM | EKVX 50.4 nM | OVCAR-5 32.2 nM | NCI-H460 < 10 nM | SK-MEL-5 14.7 nM | ACHN < 10 nM | MCF7 < 10 nM | SN12C < 10 nM | SNB-75 < 10 nM | MDA-N < 10 nM | NCI-H23 20.2 nM | RPMI-8226 < 10 nM | IGROV-1 < 10 nM | PC-3 < 10 nM | HT-29 < 10 nM | KM12 < 10 nM | HOP-92 305 nM | MOLT-4 < 10 nM | T47D 153 nM | SK-OV-3 < 10 nM | OVCAR-8 < 10 nM | HCT-116 < 10 nM | K562 < 10 nM | CAKI-1 199 nM
inactive: NCI/ADR-RES 1360 nM
178 nM: HCT-15
